Drawing on PubChem BioAssay (NCI), this text covers TGI for 15 compounds.

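Growth conditions: 96-well plates. Treatment: test compound, 48 hours, 5 concentrations. Analysis: linear interpolation between bracketing concentrations; unreached endpoints set to highest concentration. TGI: total growth inhibition.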

Holding throughout (assay): NCI tumour cell line growth inhibition, 48 h
The subject of test [1] is HCT-116 colon.
In test [2] the test system is HOP-92 NSCLC.
In test [3] the test system is MDA-MB-231 breast.
The subject of test [4] is MDA-MB-435.
The subject of test [5] is MDA-N.
For test [6], the system named is SK-MEL-28 melanoma.
In test [7] the test system is SR leukemia.
In test [8] the test system is TK-10 renal.
Test [9] relates to U251 CNS.
In test [10] the test system is DLD-1 colon.
The subject of test [11] is KM20L2 colon.

Regarding `CC(C)C1=C(O)C2=C(C(=O)C1=O)C1(C)CCCC(C)(C)C1C(O)C2OC=O` (configuration not stated), the TGI in test [1] turned out to be 20.3 µM; in test [2] it was 20.1 µM; in test [3] it was 22.5 µM; in test [4], 11.8 µM; in test [5], 28.1 µM; in test [6], 13.1 µM. The TGI is 6.52 µM in [7], 26.2 µM in test [8] and 17.1 µM in test [9].

For the compound `COC1C(O)C(O[C@H]2CC[C@@]3(C)C(CC[C@@H]4[C@@H]3CC[C@]3(C)[C@@H](C(C)OC5OC(CO)C(O)C(O)C5O)CC[C@]43O)C2)OC(C)C1OC1OC(CO)C(O)C(O)C1O` (some centres not stated), the TGI in [1], in test [2], in test [3], in [4], in test [5] and in [6] was above 100 µM throughout. Further, the TGI in test [7], in test [8] and in [9] was above 100 µM each time.

As to `CC(C)[Si](OC/C(=C/COC(C)(C)C)[C@H]1CC=C(C(=O)c2ccccc2N2CN(C)C(=O)N(C)C2)C1)(C(C)C)C(C)C`, the TGI in [1] was found to be 4.97 µM; in [2] it was 25.1 µM; in [3], 26.6 µM; in test [4] it was 30.3 µM; in [5], 4.62 µM; in test [6] it was 12.9 µM. Further, the TGI in test [7] turned out to be 5.95 µM; in test [8], 24.2 µM; in [9], 23 µM.

With `CC1(C)CC(C#Cc2ccccc2)CC(C)(C)N1O`, the TGI in test [1] came out at 43.5 µM; in [2] it was 45 µM; in test [3], 29.8 µM; in test [4], 44.6 µM; in [5] it was 29.9 µM; in test [6], 32.8 µM. Further, the TGI is above 100 µM in [7], 40.5 µM in test [8] and 64.6 µM in [9].

`CN(C)c1ccc(Cc2cc3c(O)ccc(O)c3cc(Cc3ccc(N(C)C)cc3)c2=O)cc1`: the TGI in test [1] amounted to 40.8 µM; in [2], 14.5 µM; in test [3], 63.5 µM; in test [4] it was 36.9 µM; in test [5], 41 µM; in [6] it was 37.4 µM. Besides, the TGI was above 26.5 µM in test [7], 33.6 µM in [8] and 41.4 µM in test [9].

As for `O=S1SC(=S)C2C=CC=CC21` (configuration not stated), the TGI in [1], in test [2], in test [3], in test [4], in test [5] and in test [6] was above 100 µM in each case. Besides, the TGI in test [7], in [8] and in test [9] was above 100 µM throughout.

Turning to `CCN(CCCl)c1cc(CN(C)C)cc(NC(=O)c2ccc(C(=O)Nc3cccc(CN(C)C)c3)cc2)c1`, the TGI is 14.4 µM in test [1]; 3.66 µM in test [2]; above 100 µM in test [3]; 0.665 µM in [4]; 0.685 µM in test [5]; 5.2 µM in [6]. Further, the figures for the TGI in test [7], in test [8] and in test [9] were 1.56 µM, 9.94 µM and 0.667 µM, respectively.

Regarding `CCOC(=O)c1sc2ncnc(N)c2c1C`, the TGI is above 100 µM in [1]; 92.2 µM in [2]; above 100 µM in test [3]; above 100 µM in test [4]; above 100 µM in [5]; above 100 µM in test [6]. The TGI in [7], in test [8] and in test [9] was above 100 µM throughout.

Regarding `COc1cc(C(O)c2ccc3c(c2)OCO3)cc(OC)c1OC` (configuration not stated), the TGI in [1], in test [2], in test [3], in test [4], in test [5] and in test [6] was above 100 µM each time. The TGI in test [7], in test [8] and in test [9] was above 100 µM each time.

Take `O=C(/C=C/c1ccc2c(c1)OCO2)Cc1nc2ccccc2[nH]c1=O`: the TGI in [1] was above 100 µM; in test [2] it was 73.3 µM; in test [3], 41.7 µM; in test [4] it was 46.1 µM; in test [5] it was above 100 µM; in test [6], 61.5 µM. Moreover, the TGI in test [7] is above 100 µM; in [8], 34.2 µM; in test [9], 34.2 µM.

Consider `COc1ccc(OC)c2sc(N3C(=O)/C(=C/c4cccc([N+](=O)[O-])c4)N=C3c3ccccc3)nc12`, for which the TGI was above 100 µM in test [1]; above 100 µM in test [2]; above 100 µM in test [3]; 58.3 µM in test [4]; above 100 µM in [5]; above 100 µM in test [6]. The TGI is 70.3 µM in test [7], above 100 µM in test [8] and above 100 µM in [9].

With `O=C1c2cccc(O)c2C(=O)c2c(OC3OC(CO)C(O)C(O)C3O)cccc21` (configuration not stated), the TGI in [1] is 51 µM; in [2], above 100 µM; in test [3] it was above 100 µM; in [4], 39.7 µM; in test [5], above 100 µM; in test [6], above 100 µM. The TGI in test [7], in [8] and in [9] was above 100 µM each time.

Turning to `C=CC(=O)N1C/C(=C\c2ccc(Cl)cc2)C(=O)/C(=C/c2ccc(Cl)cc2)C1`, the TGI in test [1] was 0.257 µM; in [2], 4.25 µM; in test [3] it was 1.2 µM; in test [4] it was 0.785 µM; in test [5], 0.515 µM; in test [6], 1.6 µM. Further, the TGI is above 100 µM in test [7], 4.01 µM in [8] and 0.983 µM in [9].

As to `O=C1CS(=O)(=O)C(c2cccc(Oc3ccccc3)c2)N1c1cc(Cl)ccc1Cl` (configuration not stated), the TGI came to 41.9 µM in test [1]; 38.8 µM in [2]; 38.4 µM in [3]; 25.9 µM in test [4]; 35.1 µM in test [5]; 70.4 µM in test [6]. Besides, the TGI in test [7] was above 100 µM; in [8], 90.6 µM; in test [9], 29.1 µM.

For `COc1cc(C2c3cc4c(cc3[C@@H](Nc3ccc5c(c3)OCO5)C3COC(=O)[C@H]23)OCO4)cc(OC)c1O` (some centres not stated), the TGI was 5.45 µM in [10]; 15.7 µM in [1]; 8.37 µM in test [2]; above 24.3 µM in test [11]; above 95.3 µM in test [6]; 1.74 µM in test [9].
